- melting point: 237 °C
Structure (SMILES): O=[N+]([O-])c1ccc(-c2c(Cl)nc3ncnn3c2NCC(F)(F)F)cc1

Source: patent US7084146B2 (dated 2006)
